Measurements from ChEMBL document CHEMBL2412952, “2-Substituted 4-hydroxybutanamides as potential inhibitors of γ-aminobutyric acid transporters mGAT1-mGAT4: synthesis and biological evaluation” (Bioorg Med Chem, 2013).

Assays:
[1] = molecular target: Sodium- and chloride-dependent GABA transporter 1 (Mus musculus) (UniProt P31648); test: Binding affinity to mouse GAT1 stably transfected in HEK293 cells assessed as residual binding at 100 uM relative to control; assay type: cell-based
[2] = Inhibition of mouse GAT4-mediated [3H]GABA uptake stably transfected in HEK293 cells; assay type: cell-based
[3] = molecular target: T1, Sodium- and chloride-dependent GABA transporter 1 (Mus musculus, UniProt P31648); test: Inhibition of mouse GAT1-mediated [3H]GABA uptake stably transfected in HEK293 cells; assay type: cell-based
[4] = molecular target: Sodium- and chloride-dependent GABA transporter 1 (Mus musculus) (UniProt P31648); test: Inhibition of mouse GAT1-mediated [3H]GABA uptake stably transfected in HEK293 cells assessed as residual uptake at 100 uM relative to control; assay type: cell-based
[5] = molecular target: T1, Sodium- and chloride-dependent GABA transporter 1; test: Binding affinity to mouse GAT1 stably transfected in HEK293 cells by NO-711 binding assay; assay type: cell-based
[6] = system: GABA transporter 2 (Mus musculus); test: Inhibition of mouse GAT2-mediated [3H]GABA uptake stably transfected in HEK293 cells assessed as residual uptake at 100 uM relative to control
HEK293 = test: Inhibition of mouse GAT4-mediated [3H]GABA uptake stably transfected in HEK293 cells assessed as residual uptake at 100 uM relative to control; assay type: cell-based
[7] = system: GABA transporter 3 (Mus musculus); test: Inhibition of mouse GAT3-mediated [3H]GABA uptake stably transfected in HEK293 cells assessed as residual uptake at 100 uM relative to control

Compound	Activity [1]	IC50 [2]	IC50 [3]	Activity [4]	Ki [5]	Activity [6]	Activity (HEK293)	Activity [7]
O=C(NCc1ccc(F)cc1)C(CCO)N1CCC(C(c2ccccc2)c2ccccc2)CC1 (stereo unspecified)	49%	81.3 µM	18.2 µM	–	–	–	–	–
O=C(NCc1ccc(Cl)cc1)C(CCO)N1CCC(C(c2ccccc2)c2ccccc2)CC1 (stereo unspecified)	68%	69.2 µM	24 µM	–	–	–	–	–
O=C(NCc1ccccc1Cl)C(CCO)N1CCC(C(c2ccccc2)c2ccccc2)CC1 (stereo unspecified)	89%	67.6 µM	19.5 µM	–	–	–	–	–
Cc1ccc(CNC(=O)[C@@H](C[C@@H](C)O)N2CCC(=C(c3ccccc3)c3ccccc3)CC2)cc1 (relative stereo)	58%	–	–	46%	–	–	–	–
Cc1ccc(CNC(=O)C(CCO)NCCCC(c2ccccc2)c2ccccc2)cc1 (stereo unspecified)	–	23.4 µM	55 µM	–	51.3 µM	–	–	–
CN(CCCC(c1ccccc1)c1ccccc1)C(CCO)C(=O)NCc1ccc(Cl)cc1 (stereo unspecified)	67%	22.9 µM	38.9 µM	–	–	–	–	–
O=C(NCc1ccc(Cl)cc1)C(CCO)NCCCC(c1ccccc1)c1ccccc1 (stereo unspecified)	–	16.6 µM	23.4 µM	–	56.2 µM	–	–	–
O=C(NCc1ccccc1)C(CCO)NCCCC(c1ccccc1)c1ccccc1 (stereo unspecified)	62%	38.9 µM	61.7 µM	–	–	–	–	–
CN(CCCC(c1ccccc1)c1ccccc1)C(CCO)C(=O)NCc1ccc(F)cc1 (stereo unspecified)	74%	58.9 µM	97.7 µM	–	–	–	–	–
C[C@@H](O)C[C@H](C(=O)NCc1ccccc1)N1CCC(=C(c2ccccc2)c2ccccc2)CC1 (relative stereo)	50%	89.1 µM	7.76 µM	–	–	–	–	–
CN(CCC=C(c1ccccc1)c1ccccc1)C(CCO)C(=O)NCc1ccccc1Cl (stereo unspecified)	54%	10 µM	19.1 µM	–	–	–	–	–
CN(CCC=C(c1ccccc1)c1ccccc1)C(CCO)C(=O)NCc1ccc(F)cc1 (stereo unspecified)	73%	20 µM	21.9 µM	–	–	–	–	–
O=C(NCc1ccccc1Cl)C(CCO)NCCCC(c1ccccc1)c1ccccc1 (stereo unspecified)	–	20.9 µM	33.1 µM	–	46.8 µM	–	–	–
CN(CCC=C(c1ccccc1)c1ccccc1)C(CCO)C(=O)NCc1ccccc1 (stereo unspecified)	50%	22.9 µM	10.5 µM	–	–	–	–	–
O=C(NCc1ccccc1)C(CCO)N1CCC(C(c2ccccc2)c2ccccc2)CC1 (stereo unspecified)	55%	58.9 µM	13.2 µM	–	–	51%	–	–
CN(CCCC(c1ccccc1)c1ccccc1)C(CCO)C(=O)NCc1ccccc1Cl (stereo unspecified)	85%	25.7 µM	37.2 µM	–	–	–	–	–
O=C(NCc1ccccc1Cl)C(CCO)N1CCC(=C(c2ccccc2)c2ccccc2)CC1 (stereo unspecified)	68%	67.6 µM	–	58%	–	–	–	–

Compound	Activity [1]	IC50 [2]	IC50 [3]	Activity [4]	Ki [5]	Activity [6]	Activity (HEK293)	Activity [7]
CN(CCCC(c1ccccc1)c1ccccc1)C(CCO)C(=O)NCc1ccccc1 (stereo unspecified)	79%	36.3 µM	58.9 µM	–	–	–	–	–
C[C@H](O)C[C@H](C(=O)NCc1ccc(Cl)cc1)N1CCC(=C(c2ccccc2)c2ccccc2)CC1 (relative stereo)	69%	69.2 µM	66.1 µM	–	–	–	–	–
C[C@H](O)C[C@H](C(=O)NCc1ccccc1Cl)N1CCC(=C(c2ccccc2)c2ccccc2)CC1 (relative stereo)	95%	–	–	47%	–	73%	71%	–
Cc1ccc(CNC(=O)C(CCO)N2CCC(C(c3ccccc3)c3ccccc3)CC2)cc1 (stereo unspecified)	55%	87.1 µM	30.2 µM	–	–	–	–	–
Cc1ccc(CNC(=O)C(CCO)N2CCC(=C(c3ccccc3)c3ccccc3)CC2)cc1 (stereo unspecified)	–	33.9 µM	38 µM	–	43.7 µM	–	–	–
CN(CCC=C(c1ccccc1)c1ccccc1)C(CCO)C(=O)NCc1ccc(Cl)cc1 (stereo unspecified)	61%	11.2 µM	23.4 µM	–	–	–	–	–
Cc1ccc(CNC(=O)C(CCO)N(C)CCCC(c2ccccc2)c2ccccc2)cc1 (stereo unspecified)	–	20.4 µM	37.2 µM	–	81.3 µM	–	–	–
Cc1ccc(CNC(=O)[C@@H](C[C@H](C)O)N2CCC(=C(c3ccccc3)c3ccccc3)CC2)cc1 (relative stereo)	57%	34.7 µM	53.7 µM	–	–	–	–	–
Cc1ccc(CNC(=O)C(CCO)N(C)CCC=C(c2ccccc2)c2ccccc2)cc1 (stereo unspecified)	50%	16.6 µM	22.4 µM	–	–	–	–	–
C[C@@H](O)C[C@H](C(=O)NCc1ccccc1Cl)N1CCC(=C(c2ccccc2)c2ccccc2)CC1 (relative stereo)	99%	–	–	95%	–	69%	99%	79%
C[C@H](O)C[C@H](C(=O)NCc1ccccc1)N1CCC(=C(c2ccccc2)c2ccccc2)CC1 (relative stereo)	51%	72.4 µM	24 µM	–	–	–	–	–
C[C@H](O)C[C@H](C(=O)NCc1ccc(F)cc1)N1CCC(=C(c2ccccc2)c2ccccc2)CC1 (relative stereo)	52%	–	34.7 µM	–	–	–	65%	–
Cc1ccsc1C(=CCCN1CCC[C@@H](C(=O)O)C1)c1sccc1C [TIAGABINE]	–	–	–	–	0.0389 µM	–	73%	–
O=C(NCc1ccc(F)cc1)C(CCO)NCCCC(c1ccccc1)c1ccccc1 (stereo unspecified)	82%	25.1 µM	38.9 µM	–	–	–	–	–
C[C@@H](O)C[C@H](C(=O)NCc1ccc(F)cc1)N1CCC(=C(c2ccccc2)c2ccccc2)CC1 (relative stereo)	–	41.7 µM	16.2 µM	–	42.7 µM	–	–	–
O=C(NCc1ccc(Cl)cc1)C(CCO)N1CCC(=C(c2ccccc2)c2ccccc2)CC1 (stereo unspecified)	–	17.8 µM	33.9 µM	–	75.9 µM	–	–	–
